Read-outs that look alike come from different tables or passages of the source.
What was measured:
[1] = molecular target: T1, α-2B (Homo sapiens, UniProt P18089); conditions: cited from earlier work
T1 sequence (P18089 1-450): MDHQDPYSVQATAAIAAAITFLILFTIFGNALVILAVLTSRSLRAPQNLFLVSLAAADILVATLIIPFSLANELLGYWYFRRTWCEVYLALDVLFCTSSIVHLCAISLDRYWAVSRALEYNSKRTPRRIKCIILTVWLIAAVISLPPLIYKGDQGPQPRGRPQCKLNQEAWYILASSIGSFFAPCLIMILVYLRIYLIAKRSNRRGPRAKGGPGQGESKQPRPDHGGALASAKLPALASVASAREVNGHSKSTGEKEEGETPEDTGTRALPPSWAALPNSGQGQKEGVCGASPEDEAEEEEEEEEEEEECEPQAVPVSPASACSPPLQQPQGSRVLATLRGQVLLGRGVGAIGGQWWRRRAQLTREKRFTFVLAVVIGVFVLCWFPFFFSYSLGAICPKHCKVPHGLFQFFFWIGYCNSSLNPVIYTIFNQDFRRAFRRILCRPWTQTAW

[2] = molecular target: T2, α-2C (Homo sapiens, UniProt P18825); conditions: cited from earlier work
T2 sequence (P18825 1-462): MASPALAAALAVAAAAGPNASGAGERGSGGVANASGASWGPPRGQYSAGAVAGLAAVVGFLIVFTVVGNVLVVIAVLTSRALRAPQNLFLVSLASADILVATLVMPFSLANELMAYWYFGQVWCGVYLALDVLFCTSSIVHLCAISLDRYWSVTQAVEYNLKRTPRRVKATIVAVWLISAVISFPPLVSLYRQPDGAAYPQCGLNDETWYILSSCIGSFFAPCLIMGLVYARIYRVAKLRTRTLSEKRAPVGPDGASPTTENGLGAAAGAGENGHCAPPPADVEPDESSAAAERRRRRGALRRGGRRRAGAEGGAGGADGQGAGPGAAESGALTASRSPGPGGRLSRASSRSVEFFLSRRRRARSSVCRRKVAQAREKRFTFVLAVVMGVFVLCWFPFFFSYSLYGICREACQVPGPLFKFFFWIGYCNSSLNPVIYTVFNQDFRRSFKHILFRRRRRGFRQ

[3] = molecular target: T3, α-2A (Homo sapiens, UniProt P08913); conditions: cited from earlier work
T3 sequence (P08913 1-465): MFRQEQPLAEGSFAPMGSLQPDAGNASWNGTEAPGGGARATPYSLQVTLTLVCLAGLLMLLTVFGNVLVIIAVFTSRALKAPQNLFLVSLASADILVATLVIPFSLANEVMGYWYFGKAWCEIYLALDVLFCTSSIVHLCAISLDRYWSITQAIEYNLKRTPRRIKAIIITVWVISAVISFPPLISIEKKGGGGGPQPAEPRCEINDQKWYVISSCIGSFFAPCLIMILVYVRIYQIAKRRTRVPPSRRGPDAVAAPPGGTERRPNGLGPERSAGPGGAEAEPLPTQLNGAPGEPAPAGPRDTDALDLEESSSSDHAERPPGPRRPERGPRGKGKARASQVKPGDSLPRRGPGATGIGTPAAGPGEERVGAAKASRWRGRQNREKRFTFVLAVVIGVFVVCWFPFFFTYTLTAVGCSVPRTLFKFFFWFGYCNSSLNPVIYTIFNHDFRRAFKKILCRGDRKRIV

[4] = molecular target: Mouse Tail Artery; assay: Antagonism of UK 14,304-induced vasoconstriction in isolated pressurised distal mouse tail artery; type: cell-based; conditions: for Kd: versus UK 14,304, distal tail artery; for effect on vasoconstrictor response to UK 14,304: cold (28° C.), ARC 0239 50 nM, MK912 3×10^−10M; for effect on vasoconstrictor response to UK 14,304 / effect on vasoconstriction to the α2-AR agonist UK 14,304: BRL 44408 100 and 1000 nM; for effect on vasoconstriction to the α2-AR agonist UK 14,304: warm temperatures (37° C.), ARC 239 50 nM, MK 912 0.3 nM; for −log KD: n=4
From the text: Male mice (C57BL6) were euthanized by CO2 asphyxiation. Proximal and/or distal segments of tail artery were then rapidly removed and placed in cold Krebs-Ringer bicarbonate solution (in mM): 118.3 NaCl, 4.7 KCl, 1.2 MgSO4, 1.2 KH2PO4, 2.5 CaCl2, 25.0 NaHCO3, 11. glucose (control solution). The small arteries were cannulated at both ends with glass micropipettes, secured using 12-0 nylon monofilament suture and placed in a microvascuiar chamber (Living Systems, Burlington, Vt.). The arteries were maintained at a constant transmural pressure of 60 mmHg in the absence of flow. The chamber was superfused with control solution and maintained at 37° C., pH 7.4, and gassed with 16% O2-5% CO2-balance N2. The chamber was placed on the stage of an inverted microscope (X20, Nikon TMS-F, Japan) connected to a video camera (Panasonic, CCTV camera, Japan). The vessel image was projected onto a video monitor and the internal diameter continuously determined by a video dimension analyzer (Living Systems Instrumentation, Burlington Vt.) and monitored using a BIOPAC (Santa Barbara, Calif.) data acquisition system (Gateway Dimensions Pentium Computer).
Small arteries were allowed to equilibrate for 30-40 min at a transmural pressure (PTM) of 60 mmHg before addition of α1 and α2-AR agonists and antagonists. Concentration-effect curves to the selective α1-AR agonist, phenylephrine, or the selective α2-AR agonist, UK 14,304 (brimonidine, 5-bromo-N-(4,5-dihydro-1H-imidazol-2-yl)-6-quinoxalinamine) were generated by increasing the concentration of the agonists in half-log increments, once the constriction to the previous concentration had stabilized. Following completion of the concentration-effect curve, the influence of the agonists was terminated by repeatedly exchanging the buffer solution and allowing the artery to return to its stable baseline level.
To evaluate the effect of selective α2-AR antagonists on vasoconstriction, concentration-effect curves to UK 14,304 were determined under control conditions and in the presence of the selective α2A-AR antagonist, BRL 44408 (100 and 1000 nM), the selective α2B-AR antagonist ARC 0239 (50 nM) or the selective α2C-AR antagonist MK 912 (0.3 nM) (Table 1). When these receptor antagonists were used, the preparations were incubated for 30 min with the drugs prior to, and also during, exposure of the arteries to the agonists. When analyzing the influence of cold on α-AR responsiveness, the temperature of the superfusate was decreased to 28° C. for 30 min prior to commencing a concentration effect curve to the constrictor agonists. This provides sufficient time for the effect of cold on adrenergic reactivity to stabilize.
Vasomotor responses were expressed as a percentage change in internal diameter (ID) prior to administrating the agent. Because of the phasic behavior of the vasomotion in distal. tail arteries, the signal was electronically averaged (BIOPAC software, smoothing factor of 2000) in order to obtain diameter measurements. Functional data is expressed as means±SEM for n number of experiments, where n equals the number of animals from which blood vessels were studied. Antagonist dissociation constants (KD) were determined either from Arunlakshana and Schild plots or according to the formula: KD=[Ant]/(CR-1), where [Ant] is the concentration of antagonist, and CR the ratio of agonist-concentrations producing equal responses in the presence and absence of the antagonist. […] Statistical evaluation of the data was performed by Student's t-test for either paired or unpaired observations. When more than two means were compared, analysis of variance was used. If a significant F value was found, Scheffe's test for multiple comparisons was employed to identify differences among groups. Values were considered to be statistically different when P was less than 0.05.

[5] = tested on: control and SSc arterioles; assay: Agonist-induced vasoconstriction in human dermal arterioles from control and SSc subjects; type: cell-based; conditions: for constriction: 1 μM of the agonist; for Emax: Homo sapiens
From the text: Skin biopsies (6 mm punch) were obtained from the same location on the medial aspect on the upper arm of patients and control subjects. Eleven patients with diffuse cutaneous SSc were studied: nine female and two male. Their average age was 49 years old (range 33 to 69) and they had SSc for an average of 4 years (range 1 to 9 years from first physician diagnosis of SSc). SSc patients were recruited from the Johns Hopkins and University of Maryland Scleroderma Center. All patients met the American College of Rheumatology criteria for a diagnosis of SSc. Biopsy of the skin was performed in the upper arm in an area considered to have normal skin thickness determined by clinical palpation (clinically-uninvolved skin). Patients with overlap syndromes (e.g. lupus) were excluded. Patient medications varied between individuals: anti-inflammatory /immunosuppressant, 4 patients on prednisone, 1 on methotrexate, 1 on cyclophosphamide, and 1 on D-penicillamine; gastrointestinal, 5 on omeprazole, 3 on cisapride, 2 on ranitidine, 1 on lansoprazole; angiotensin converting enzyme inhibitors, 3 on enalapril, 1 on lisinopril; angiotensin receptor antagonists, 1 on losartin, 1 on valsartin; calcium antagonists, 2 on nifedipine, 1 on verapamil, 1 on amlodipine, 1 on diltiazem; α1-adrenergic receptor antagonists, 1 on terazosin. Vasoconstrictor responses to the α1-adrenergic receptor (α1-AR) agonist, phenylephrine, were not included for the patient receiving terazosin. Eight normal subjects were analyzed: six female and two males with an average age of 50 years old (range 38 to 62). All patients and volunteers gave informed consent and the study was approved by the Johns Hopkins University human subjects IRB committee.
Arterioles were dissected from the deep dermal plexus of the biopsies and any side branches tied. […] The arterioles were cannulated with glass micropipettes and placed in a microvessel chamber as previously describe. The arterioles were maintained in no-flow state at a constant transmural pressure (PTM)of 40 mmHg. The chamber was superfused with buffer solution (37° C., pH 7.4, gassed with 16% O2-5% CO2-balance N2) and placed on stage of an inverted microscope for continuous monitoring of internal diameter using a video camera and video dimension analyzer.
Vasoconstriction was assessed in response to: i) KCl (15 to 60 mM), ii) the selective α1-AR agonist, phenylephrine (0.01 to 1 μM) (SIGMA, St Louis, Mo.), or iii) the selective α2-AR agonist, UK 14,304 (1 to 100 nM) (brimonidine, 5-bromo-N-(4,5-dihydro-1H-imidazol-2-yl)-6-quinoxalinamine, RBI, Natick, Mass.). Responses to UK 14,304 were also evaluated following denudation of the endothelium, achieved by carefully placing a wire (70μdiameter) through the vessel lumen. Endothelium-removal was confirmed by histology and by loss of response to the endothelial stimuli acetylcholine or bradykinin.
Responses were expressed as a percentage change in baseline diameter. Data is expressed as means±SEM for n number of experiments, where n equals the number of subjects from which blood vessels were studied. Concentration-effect curves were analyzed by comparing: i) maximal responses (vasoconstriction or dilatation), and ii) the area under the curve (AUC). Statistical evaluation of the data was performed using paired or unpaired t-tests. Responses were considered to be statistically different when P was less than 0.05.

[6] = tested on: mouse tail arteries; assay: Agonist-induced vasoconstriction in isolated mouse tail artery, with influence of cold; type: cell-based; conditions: for constriction of proximal and distal segments of mouse tail arteries: 10^−9 to 3×10^−7M, 37° C.; for influence of cold on the constrictor response to the agonist: distal segments, 28° C. versus 37° C.
Experimental: Small arteries were allowed to equilibrate for 30-40 min at a transmural pressure (PTM) of 60 mmHg before addition of α1 and α2-AR agonists and antagonists. […] Following completion of the concentration-effect curve, the influence of the agonists was terminated by repeatedly exchanging the buffer solution and allowing the artery to return to its stable baseline level.
Vasomotor responses were expressed as a percentage change in internal diameter (ID) prior to administrating the agent. Because of the phasic behavior of the vasomotion in distal. tail arteries, the signal was electronically averaged (BIOPAC software, smoothing factor of 2000) in order to obtain diameter measurements. Functional data is expressed as means±SEM for n number of experiments, where n equals the number of animals from which blood vessels were studied. Antagonist dissociation constants (KD) were determined either from Arunlakshana and Schild plots or according to the formula: KD=[Ant]/(CR-1), where [Ant] is the concentration of antagonist, and CR the ratio of agonist-concentrations producing equal responses in the presence and absence of the antagonist. […] Statistical evaluation of the data was performed by Student's t-test for either paired or unpaired observations. […]

[7] = 28° C. (cold), read-out: KD Mouse Tail Artery 28° C.
[8] = 37° C. (warm), read-out: KD Mouse Tail Artery 37° C.

Kd [4, 7]	Kd [4, 8]	−log KD ([4]; 28° C. (cold))	−log KD ([4]; 37° C., Arunlakshana and Schild plot)	SMILES	Kd [1]	Kd [2]	Kd [3]	expected shift in concentration-effect curves generated by α2B-AR stimulation ([4]; based on the Table 1 KD, antagonist at 50 nM)	effect on vasoconstrictor response to UK 14,304 [4]	effect on vasoconstriction to the α2-AR agonist UK 14,304 [4]	constriction ([5]; SSc arterioles)	constriction ([5]; control arterioles)	constriction of proximal and distal segments of mouse tail arteries [6]	influence of cold on the constrictor response to the agonist [6]	Emax ([5]; SSc arterioles with endothelium, 1-100 nM, read-out: maximal response to the agonist (constriction))	Emax ([5]; control arterioles with endothelium, 1-100 nM, read-out: maximal response to the agonist (constriction))	Emax ([5]; endothelium-denuded SSc arterioles, read-out: maximal response (constriction))	Emax ([5]; endothelium-denuded control arterioles, read-out: maximal response (constriction))	effect on cold-induced amplification of the α2-AR response ([4]; 28° C. versus 37° C., UK 14,304)
> 0.05 µM	> 0.05 µM			COc1ccccc1N1CCN(CCN2C(=O)c3ccccc3C(C)(C)C2=O)CC1 [ARC 239]	0.0046 µM	0.051 µM	0.256 µM	~10 fold	not inhibited	not inhibited									
				CNC[C@H](O)c1cccc(O)c1 [phenylephrine]							45±7%	45±8%	caused concentration-dependent constriction	did not affect					
				Brc1c(NC2=NCCN2)ccc2nccnc12 [UK 14,304, 5-bromo-N-(4,5-dihydro-1H-imidazol-2-yl)-6-quinoxalinamine]									caused concentration-dependent constriction	dramatically and reversibly increased	67 ± 4%	25 ± 5%	67 ± 10%	25 ± 7%	
0.029 µM	0.02 µM	7.54 ± 0.10	7.69±0.13	CC1c2ccccc2CN1CC1=NCCN1 (stereo not shown) [BRL 44408]	0.174 µM	0.187 µM	0.013 µM		reduced	inhibited									did not reduce

— patent US6444681B1, “Methods and compositions for treating Raynaud's Phenomenon and scleroderma” (The Ohio State University Research Foundation, priority 2000, dated 2002)
